Source: patent publication US5629173A, “Methods of use of serine protease variants having peptide ligase activity” (priority 1995, dated 1997)
Residues, ends and D or L forms follow the SMILES beside them.

How the values were obtained:
[1] = target: T1, peptide ligase acylated by s-Ala-Ala-Pro-Phe (Bacillus amyloliquefaciens, UniProt P00782, P332A/S328C); test: Aminolysis efficiency of di- and tri-amino acid peptide nucleophiles (Table IV); format: biochemical; settings: for apparent second order rate constants for the reaction of the nucleophile with the acylated peptide ligase, compared: peptides amidated at the carboxy terminus, low peptide concentrations, pH 8.0, 25 C
T1 construct: made in house
T1 sequence (P00782 108-382 S328C/P332A): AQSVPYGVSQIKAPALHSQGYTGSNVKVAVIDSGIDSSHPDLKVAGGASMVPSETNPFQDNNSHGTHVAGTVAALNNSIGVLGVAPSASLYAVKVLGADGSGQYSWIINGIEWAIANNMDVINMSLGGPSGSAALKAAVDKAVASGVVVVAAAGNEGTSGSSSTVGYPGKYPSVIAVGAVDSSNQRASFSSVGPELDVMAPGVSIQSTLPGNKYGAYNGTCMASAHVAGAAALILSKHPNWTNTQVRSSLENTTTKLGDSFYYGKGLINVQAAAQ
Description: Enzymatic ligation of peptides were performed at (25±0.2° C.) in 90 mM Tricine (pH 8.0), 2% (v/v) dimethylacetamide, 0.005% (v/v) Tween 80. The comparison between substrates having different leaving groups was simplified by measuring initial reaction rates at a low substrate concentrations (70-75 μM) and at a higher concentration (1.33 mM) where rates are proportional to kcat/KM and the kcat, respectively (Fersht (1977) in Enzyme Structure and Mechanism, W. H. Freeman & Co. USA). The higher substrate concentration may still be below the KM for some of the substrates, so that values for kcat are less accurate. The aminolysis with di- and tripeptides was performed at low peptide concentrations. The aminolysis rate V=kaminolysis [N][E-Ac]/KN, where [N] is the nucleophile concentration, [E-Ac] is the concentration of acyl-enzyme intermediate and KN is the dissociation constant for the binding of the nucleophile to the acyl-enzyme intermediate (Riechmann and Kasche (1985), Biochem. Biophys. Acta., 830, 164-172). Since KN=[N][E-Ac]/[N·E-Ac] a change in [N] will result in a change in [E-Ac] but at low [N], [E-Ac]>>[N·E-Ac] and kaminolysis /KN (the apparent second order rate constants for the reaction between the different nucleophile and the acyl-enzyme intermediate) may be compared. The concentrations of the peptide nucleophiles, and the calibration of the absorbance data for the different ligation products was obtained from amino acid composition analysis. The rates of peptide ligation were measured at four or five different concentrations for each nucleophile.
Ligation reactions were analyzed by taking aliquots at different times and analyzing the peptide products by C-18 reversed phase HPLC. Peptides were eluted in a gradient of acetonitrile/0.1% TFA in water/0.1% TFA and the absorbance at 214 nm monitored. Amino acid composition analysis was used to confirm both the hydrolysis and aminolysis products and to calibrate the absorbance values. The structures of the hydrolysis and aminolysis products (using the dipeptide Ala-Phe-amide as a nucleophile) were confirmed by mass spectrometrical analysis.

[2] = Esterase activity, hydrolysis of activated ester substrate; format: biochemical; settings: ratio of the apparent second order rate constants (kcat/KM)
Description: The esterase and amidase activities were obtained from initial rate measurements using a Kontron Uvikon 860 spectrophotometer. The assay for esterase activity utilized the substrate s-Ala-Ala-Pro-Phe-Sbz at (25±0.2° C.) in 100 mM Tris-HCl (pH 8.60), 4% (v/v) dimethylsulfoxide, 0.005% (v/v) Tween 80. With the non-cysteine containing proteases, DTNB (Ellman (1959), Arch. Biochem. Biophys., 82, 70-77) was added to a concentration of 37.5 μM to visualize the release of thiolbenzoate upon hydrolysis of the substrate. […] The amidase activities were measured under identical conditions by following the increase in absorbance at 412 nm upon hydrolysis of p-nitroanilide from s-Ala-Ala-Pro-Phe-pNA.

Molecule: C[C@H](N)C(=O)N[C@@H](Cc1ccccc1)C(N)=O [AF, Ala-Phe-amide]
- apparent second order rate constants for the reaction of the nucleophile with the acylated peptide ligase, compared [1]: 1.0

Molecule: C[C@H](N)C(=O)N[C@@H](Cc1ccccc1)C(=O)N[C@@H](C)C(N)=O [AFA, Ala-Phe-Ala-amide] (H-Ala-Phe-Ala-NH2)
- apparent second order rate constants for the reaction of the nucleophile with the acylated peptide ligase, compared [1]: 2.0

Molecule: NC(=O)CNC(=O)[C@@H](N)Cc1ccccc1 [FG, Phe-Gly-amide] (H-Phe-Gly-NH2)
- quality as ligation substrate, in words ([1]; compared with NH2-Gly-Phe-amide): extremely poor ligation substrates
- apparent second order rate constants for the reaction of the nucleophile with the acylated peptide ligase, compared [1]: 0.006

Molecule: C[C@H](NC(=O)CN)C(N)=O [GA, Gly-Ala-amide] (H-Gly-Ala-NH2)
- apparent second order rate constants for the reaction of the nucleophile with the acylated peptide ligase, compared [1]: 0.1

Molecule: NCC(=O)N[C@@H](Cc1ccccc1)C(N)=O [GF, Gly-Phe-amide] (H-Gly-Phe-NH2)
- apparent second order rate constants for the reaction of the nucleophile with the acylated peptide ligase, compared [1]: 0.8

Molecule: CC(C)C[C@H](NC(=O)CN)C(N)=O [GL, Gly-Leu-amide]
- apparent second order rate constants for the reaction of the nucleophile with the acylated peptide ligase, compared [1]: 0.3

Molecule: CC(C)C[C@H](N)C(=O)N[C@@H](Cc1ccccc1)C(N)=O [LF, Leu-Phe-amide] (H-Leu-Phe-NH2)
- apparent second order rate constants for the reaction of the nucleophile with the acylated peptide ligase, compared [1]: 0.3

Molecule: CC(C)C[C@H](N)C(=O)N[C@@H](Cc1ccccc1)C(=O)N[C@@H](CC(=O)O)C(N)=O [LFD, Leu-Phe-Asp-amide] (H-Leu-Phe-Asp-NH2)
- apparent second order rate constants for the reaction of the nucleophile with the acylated peptide ligase, compared [1]: 0.3

Molecule: N=C(N)NCCC[C@H](N)C(=O)N[C@@H](Cc1ccccc1)C(N)=O [RF, Arg-Phe-amide]
- faster to aminolyze than Arg-Gly [1]: ~100 fold
- apparent second order rate constants for the reaction of the nucleophile with the acylated peptide ligase, compared [1]: 2.0

Molecule: N=C(N)NCCC[C@H](N)C(=O)NCC(N)=O [RG, Arg-Gly-amide] (H-Arg-Gly-NH2)
- apparent second order rate constants for the reaction of the nucleophile with the acylated peptide ligase, compared [1]: 0.04

B1: wild type: wild type subtilisin from Bacillus amyloliquefaciens (subtilisin BPN') (protein, UniProt P00782 108-382, looked up)
Subtilisin BPN': AQSVPYGVSQIKAPALHSQGYTGSNVKVAVIDSGIDSSHPDLKVAGGASMVPSETNPFQDNNSHGTHVAGTVAALNNSIGVLGVAPSASLYAVKVLGADGSGQYSWIINGIEWAIANNMDVINMSLGGPSGSAALKAAVDKAVASGVVVVAAAGNEGTSGSSSTVGYPGKYPSVIAVGAVDSSNQRASFSSVGPELDVMAPGVSIQSTLPGNKYGAYNGTSMASPHVAGAAALILSKHPNWTNTQVRSSLENTTTKLGDSFYYGKGLINVQAAAQ
- esterase/amidase [2]: 4.8
